Data reported in patent publication US12371400B2, “Cathepsin inhibitors” (ACADEMISCH ZIEKENHUIS LEIDEN (H.O.D.N. LUMC), priority 2017, dated 2025).
pKi: −log10 of the molar value.

Key:
CatK [1] = molecular target: T1, CatK (Homo sapiens, UniProt P43235); assay: CatK activity (probe BMV109) and CatK expression (Western blot) in OC lysates; type: cell-based; design: endogenous in cells; host or cells: human osteoclasts differentiated from CD14+ monocytes on cortical bone slices; conditions: for mature CatK in OCs (Western blotting): OCs treated with inhibitor
T1 sequence (P43235 115-329): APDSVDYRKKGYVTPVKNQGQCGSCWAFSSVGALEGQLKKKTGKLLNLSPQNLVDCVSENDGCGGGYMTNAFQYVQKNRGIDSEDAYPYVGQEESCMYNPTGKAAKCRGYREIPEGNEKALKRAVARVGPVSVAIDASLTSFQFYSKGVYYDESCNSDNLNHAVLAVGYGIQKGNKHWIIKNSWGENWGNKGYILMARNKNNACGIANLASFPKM
Description: (§1) The inhibitory properties on CatK of inhibitors of this invention were tested in a biologically relevant setting: inhibition of bone resorption by osteoclasts (OCs). OCs are the cells that degrade the bone matrix by secretion of acid and CatK into the resorption lacunae, resulting in the cleavage of collagen type I. Inhibition of osteoclastic CatK was studied by culturing OCs on cortical bone slices in presence of inhibitors of this invention (FIG. 5). […] OCs predominantly form deep trenches (paths) while OCs lacking CatK form small pits (circular dots). B) CD14+ monocytes on bone slices were treated with MCSF (day 0) and RANKL (day 3) to stimulate differentiation to mature OCs. Medium containing either an inhibitor or DMSO was refreshed on day 7, 10, 13 and 16. At day 21, OCs were washed away and lysed, and bone slices were stained to visualize bone resorption. C) Bone resorption visualized by staining of resorption pits with Coomassie Brilliant Blue. More staining means more resorption pits, thus more bone resorption activity. Normal D) Schematic overview of pro-Cathepsin K activation. E) CatK activity and expression in OC lysates. […] Darker bands indicate more activity/expression of CatK.
OC lysates were treated with activity-based irreversible Cathepsin probe BMV109 to assess whether the observed inhibition of bone resorption could be correlated with CatK activity (FIG. 5E).

hCatK = molecular target: T2, hCatK (Homo sapiens, UniProt P43235); assay: Kinetic evaluation of covalent inhibitors on purified hCatK; type: biochemical; conditions: 100 pM hCatK, 4 μM Z-FR-AMC, 26° C., reaction started by addition of CatK; for pKi: read-out: Kl; for kinact: read-out: kinact (converted)
T2 sequence (P43235 115-329): T1 sequence (P43235 115-329)
Description: The reaction kinetics of irreversible covalent inhibitor compounds may be assed in the following manner. Inhibitors (200 nL, 100× final concentration in DMSO) were diluted in reaction buffer (10 μL). Fluorogenic substrate (5 μL, 4× final concentration) was added and the reaction was started by addition of Cathepsin (5 μL, 4× final concentration). Fluorescence intensity was measured every 2 minutes for 60 minutes and fitted to equation I to obtain the Kobs. The obtained values were plotted against the inhibitor concentration and fitted to equation II to obtain kinetic parameters Kinact (rate of covalent bond formation) and Ki.
Kinetic evaluation of irreversible covalent inhibitors was conducted by following the progress curve of inhibition when the hydrolysis of substrate is started by addition of the enzyme (instead of incubating the protease with the inhibitor prior to addition of the substrate). From this curve the maximum rate of covalent bond formation (Kinact) could be determined (Table 4).

human osteoclasts (OCs) = assay: Inhibition of bone resorption by human osteoclasts cultured on cortical bone slices; type: cell-based; conditions: for effective dose / concentration inhibiting bone resorption: human OCs on cortical bone slices, staining at day 21
Description: as §1

CatK [2] = molecular target: T1, CatK; conditions: cited from earlier work
[3] = in vivo; cited from earlier work
[4] = phase III clinical trials; cited from earlier work
[5] = samples treated with high concentrations

| SMILES | mature CatK in OCs (Western blotting) (CatK [1]) | CatK activity in OC lysates (probe BMV109) (CatK [1]; [5]) | kinact/Kl (hCatK) | pKi (hCatK) | kinact (hCatK) | inhibition of bone resorption (human osteoclasts (OCs); all tested concentrations) | effective dose / concentration inhibiting bone resorption (human osteoclasts (OCs)) | CatK activity in OC lysates (probe BMV109) (CatK [1]; all samples treated) | selectivity for CatK versus other Cathepsins (CatK [2]) | half-life [3] | stroke risk [4] | bone resorption staining of bone slices (human osteoclasts (OCs); 3 nM) | bone resorption staining of bone slices (human osteoclasts (OCs); 15 nM) |
| --- | --- | --- | --- | --- | --- | --- | --- | --- | --- | --- | --- | --- | --- |
| C#CC(C)NC(=O)[C@H](CC(C)(C)F)N[C@@H](c1ccc(-c2ccc(S(C)(=O)=O)cc2)cc1)C(F)(F)F (mixture of isomers) [Compound 5, (S)—N—((R/S)-but-3-yn-2-yl)-4-fluoro-4-methyl-2-(((S)-2,2,2-trifluoro-1-(4′-(methylsulfonyl)-[1,1′-biphenyl]-4-yl)ethyl)amino)pentanamide] | mature CatK is present | full inhibition of CatK activity | 250 M⁻¹ s⁻¹ | 5.49 | 0.000783 s⁻¹ | non-conclusive | – | – | – | – | – | – | – |
| C#CCNC(=O)[C@H](CC(C)(C)F)N[C@@H](c1ccc(-c2ccc(S(C)(=O)=O)cc2)cc1)C(F)(F)F [Compound 4, (S)-4-fluoro-4-methyl-N-(prop-2-yn-1-yl)-2-(((S)-2,2,2-trifluoro-1-(4′-(methylsulfonyl)-[1,1′-biphenyl]-4-yl)ethyl)amino)pentanamide] | mature CatK is present | full inhibition of CatK activity | 883 M⁻¹ s⁻¹ | 6.67 | 0.000183 s⁻¹ | – | ≥ 80 nM | – | – | – | – | – | – |
| CC(C)(F)C[C@H](N[C@@H](c1ccc(-c2ccc(S(C)(=O)=O)cc2)cc1)C(F)(F)F)C(=O)NC1(C#N)CC1 [ODN, (S)—N-(1-cyanocyclopropyl)-4-fluoro-4-methyl-2-(((S)-2,2,2-trifluoro-1-(4′-(methylsulfonyl)-[1,1′-biphenyl]-4-yl)ethyl)amino)pentanamide, reference compound] | – | – | – | – | – | – | around 15 nM | strong increase of mature CatK activity | high selectivity | 66 to 93 h | increased stroke risk | formation of deep trenches | formation of shallow pits |
